Laboratory results published in patent US20230085307A1, “PYRIDAZINONE COMPOUND AND HERBICIDE” (NISSAN CHEMICAL CORPORATION, priority 2019, published 2023).

Legend:
[1] = test system: Italian ryegrass; experiment: Test Example 5: herbicidal effect by foliage application, plastic box (Table 20, symbol K); format: in vivo, Italian ryegrass (Lolium multiflorum); settings: foliage application, 320 g/ha, evaluated three weeks after application
Procedure, shortened: (§1)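 Foliar spray test: emulsion formulation diluted in water to a set application rate, sprayed onto 14-day-old plants raised in diluvial soil at 25° C to 30° C under glass. Both herbicidal effect and crop effect rated visually three weeks later.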

[2] = test system: blackgrass; experiment: Test Example 5: herbicidal effect by foliage application, plastic box (Table 20, symbol J); format: in vivo, blackgrass (Alopecurus myosuroides); settings: foliage application, 320 g/ha, evaluated three weeks after application
Procedure, shortened: as §1

[3] = test system: windgrass; experiment: Test Example 4: herbicidal effect by soil treatment (Table 19, symbol L); format: in vivo, windgrass (Apera spica-venti); settings: amount of applied herbicide 320 g/ha
Procedure, shortened: (§2)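 Herbicidal effect was rated 3 weeks after treatment, using the scoring criteria of an earlier test. The compound, formulated as an emulsion and diluted in water to a set herbicide amount, had been sprayed uniformly on soil over freshly sown seeds. Growth took place in a greenhouse at 25° C. to 30° C.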

[4] = test system: chickweed; experiment: Test Example 5: herbicidal effect by foliage application, plastic box (Table 20, symbol P); format: in vivo, common chickweed (Stellaria media); settings: foliage application, 320 g/ha, evaluated three weeks after application
Procedure, shortened: as §1

[5] = test system: wild oat; experiment: Test Example 4: herbicidal effect by soil treatment (Table 19, symbol I); format: in vivo, wild oat (Avena fatua); settings: amount of applied herbicide 320 g/ha
Procedure, shortened: as §2

[6] = test system: green foxtail; experiment: Test Example 5: herbicidal effect by foliage application, plastic box (Table 20, symbol G); format: in vivo, green foxtail (Setaria viridis); settings: foliage application, 320 g/ha, evaluated three weeks after application
Procedure, shortened: as §1

[7] = test system: barnyard grass; experiment: Test Example 3: herbicidal effect by foliage application, Wagner pot (Table 18, symbol H); format: in vivo, barnyard grass (Echinochloa crus-galli); settings: amount of applied herbicide 320 g/ha
Procedure, shortened: (§3)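 Plants were sown in alluvial soil held under 0.1–0.5 cm standing water and grown 14 days in a greenhouse at 25–30 °C. An emulsifiable formulation, water-diluted to the set dose, was then sprayed onto the foliage, and effects were scored three weeks later using previously defined criteria.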

[8] = test system: oval-leafed pondweed; experiment: Test Example 1: herbicidal activity, application before weed generation under submerged conditions (Table 16, symbol C); format: in vivo, oval-leafed pondweed (Monochoria vaginalis); settings: 320 g/ha applied herbicide
Procedure, shortened: (§4)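 Submerged Wagner pots (alluvial soil, 4 cm water) sown with weed seeds and planted with 2.5-leaf rice seedlings; emulsifiable concentrate diluted in water applied to water surface on sowing day. Held in greenhouse at 25-30 °C; injury scored 0-5 by herbicidal rate after three weeks.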

[9] = test system: Chinese sprangletop; experiment: Test Example 3: herbicidal effect by foliage application, Wagner pot (Table 18, symbol D); format: in vivo, chinese sprangletop (Leptochloa chinensis); settings: amount of applied herbicide 320 g/ha
Procedure, shortened: as §3

[10] = test system: velvetleaf; experiment: Test Example 5: herbicidal effect by foliage application, plastic box (Table 20, symbol M); format: in vivo, velvetleaf (Abutilon theophrasti); settings: foliage application, 320 g/ha, evaluated three weeks after application
Procedure, shortened: as §1

[11] = test system: southern crabgrass; experiment: Test Example 4: herbicidal effect by soil treatment (Table 19, symbol F); format: in vivo, southern crabgrass (Digitaria ciliaris); settings: amount of applied herbicide 320 g/ha
Procedure, shortened: as §2

[12] = test system: chickweed; experiment: Test Example 4: herbicidal effect by soil treatment (Table 19, symbol P); format: in vivo, common chickweed (Stellaria media); settings: amount of applied herbicide 320 g/ha
Procedure, shortened: as §2

[13] = test system: rice flat sedge; experiment: Test Example 3: herbicidal effect by foliage application, Wagner pot (Table 18, symbol E); format: in vivo, rice flat sedge (Cyperus iria); settings: amount of applied herbicide 320 g/ha
Procedure, shortened: as §3

[14] = test system: barnyard grass; experiment: Test Example 5: herbicidal effect by foliage application, plastic box (Table 20, symbol H); format: in vivo, barnyard grass (Echinochloa crus-galli); settings: foliage application, 320 g/ha, evaluated three weeks after application
Procedure, shortened: as §1

[15] = test system: Italian ryegrass; experiment: Test Example 4: herbicidal effect by soil treatment (Table 19, symbol K); format: in vivo, Italian ryegrass (Lolium multiflorum); settings: amount of applied herbicide 320 g/ha
Procedure, shortened: as §2

[16] = test system: Japanese bulrush; experiment: Test Example 1: herbicidal activity, application before weed generation under submerged conditions (Table 16, symbol B); format: in vivo, Japanese bulrush (Schoenoplectus juncoides); settings: 320 g/ha applied herbicide
Procedure, shortened: as §4

[17] = test system: velvetleaf; experiment: Test Example 4: herbicidal effect by soil treatment (Table 19, symbol M); format: in vivo, velvetleaf (Abutilon theophrasti); settings: amount of applied herbicide 320 g/ha
Procedure, shortened: as §2

[18] = test system: barnyard grass; experiment: Test Example 4: herbicidal effect by soil treatment (Table 19, symbol H); format: in vivo, barnyard grass (Echinochloa crus-galli); settings: amount of applied herbicide 320 g/ha
Procedure, shortened: as §2

[19] = test system: persian speedwell; experiment: Test Example 5: herbicidal effect by foliage application, plastic box (Table 20, symbol R); format: in vivo, Persian speedwell (Veronica persica); settings: foliage application, 320 g/ha, evaluated three weeks after application
Procedure, shortened: as §1

[20] = test system: windgrass; experiment: Test Example 5: herbicidal effect by foliage application, plastic box (Table 20, symbol L); format: in vivo, windgrass (Apera spica-venti); settings: foliage application, 320 g/ha, evaluated three weeks after application
Procedure, shortened: as §1

[21] = test system: redroot pigweed; experiment: Test Example 4: herbicidal effect by soil treatment (Table 19, symbol N); format: in vivo, redroot pigweed (Amaranthus retroflexus); settings: amount of applied herbicide 320 g/ha
Procedure, shortened: as §2

[22] = test system: green foxtail; experiment: Test Example 4: herbicidal effect by soil treatment (Table 19, symbol G); format: in vivo, green foxtail (Setaria viridis); settings: amount of applied herbicide 320 g/ha
Procedure, shortened: as §2

[23] = test system: redroot pigweed; experiment: Test Example 5: herbicidal effect by foliage application, plastic box (Table 20, symbol N); format: in vivo, redroot pigweed (Amaranthus retroflexus); settings: foliage application, 320 g/ha, evaluated three weeks after application
Procedure, shortened: as §1

[24] = test system: lambsquarters; experiment: Test Example 5: herbicidal effect by foliage application, plastic box (Table 20, symbol O); format: in vivo, lambsquarters (Chenopodium album); settings: foliage application, 320 g/ha, evaluated three weeks after application
Procedure, shortened: as §1

[25] = test system: southern crabgrass; experiment: Test Example 5: herbicidal effect by foliage application, plastic box (Table 20, symbol F); format: in vivo, southern crabgrass (Digitaria ciliaris); settings: foliage application, 320 g/ha, evaluated three weeks after application
Procedure, shortened: as §1

[26] = test system: late watergrass; experiment: Test Example 1: herbicidal activity, application before weed generation under submerged conditions (Table 16, symbol A); format: in vivo, late watergrass (Echinochloa oryzicola); settings: 320 g/ha applied herbicide
Procedure, shortened: as §4

[27] = test system: blackgrass; experiment: Test Example 4: herbicidal effect by soil treatment (Table 19, symbol J); format: in vivo, blackgrass (Alopecurus myosuroides); settings: amount of applied herbicide 320 g/ha
Procedure, shortened: as §2

[28] = test system: lambsquarters; experiment: Test Example 4: herbicidal effect by soil treatment (Table 19, symbol O); format: in vivo, lambsquarters (Chenopodium album); settings: amount of applied herbicide 320 g/ha
Procedure, shortened: as §2

[29] = test system: wild oat; experiment: Test Example 5: herbicidal effect by foliage application, plastic box (Table 20, symbol I); format: in vivo, wild oat (Avena fatua); settings: foliage application, 320 g/ha, evaluated three weeks after application
Procedure, shortened: as §1

[30] = test system: persian speedwell; experiment: Test Example 4: herbicidal effect by soil treatment (Table 19, symbol R); format: in vivo, Persian speedwell (Veronica persica); settings: amount of applied herbicide 320 g/ha
Procedure, shortened: as §2

SMILES | herbicidal effect on K: Italian ryegrass (criteria 0-5) [1] | herbicidal effect on J: blackgrass (criteria 0-5) [2] | L: windgrass, herbicidal effect rating [3] | herbicidal effect on P: chickweed (criteria 0-5) [4] | I: wild oat, herbicidal effect rating [5] | herbicidal effect on G: green foxtail (criteria 0-5) [6] | herbicidal effect on H: barnyard grass [7] | Herbicidal effect on C: oval-leafed pondweed (grade 0-5) [8] | herbicidal effect on D: Chinese sprangletop [9] | herbicidal effect on M: velvetleaf (criteria 0-5) [10] | F: southern crabgrass, herbicidal effect rating [11] | P: chickweed, herbicidal effect rating [12] | herbicidal effect on E: rice flat sedge [13] | herbicidal effect on H: barnyard grass (criteria 0-5) [14] | K: Italian ryegrass, herbicidal effect rating [15] | Herbicidal effect on B: Japanese bulrush (grade 0-5) [16] | M: velvetleaf, herbicidal effect rating [17] | H: barnyard grass, herbicidal effect rating [18] | herbicidal effect on R: persian speedwell (criteria 0-5) [19] | herbicidal effect on L: windgrass (criteria 0-5) [20] | also measured
COc1ccccc1-c1sc2ccc(C#C[Si](C)(C)C)cc2c1-c1c(O)c(C)nn(C)c1=O [2-188] | 4 (Herbicidal rate of 70% or more and less than 90%) | 4 (Herbicidal rate of 70% or more and less than 90%) | 0 (Herbicidal rate of 5% or less (almost no effect)) | 5 (Herbicidal rate of 90% or more (almost completely withered)) | 0 (Herbicidal rate of 5% or less (almost no effect)) | 0 (Herbicidal rate of 5% or less (almost no effect)) | 4 (Herbicidal rate of 70% or more and less than 90%) | 0 (Herbicidal rate of 5% or less (almost no effect)) | 3 (Herbicidal rate of 40% or more and less than 70%) | 0 (Herbicidal rate of 5% or less (almost no effect)) | 0 (Herbicidal rate of 5% or less (almost no effect)) | 0 (Herbicidal rate of 5% or less (almost no effect)) | 0 (Herbicidal rate of 5% or less (almost no effect)) | 1 (Herbicidal rate of 5% or more and less than 20%) | 0 (Herbicidal rate of 5% or less (almost no effect)) | 0 (Herbicidal rate of 5% or less (almost no effect)) | 0 (Herbicidal rate of 5% or less (almost no effect)) | 0 (Herbicidal rate of 5% or less (almost no effect)) | 1 (Herbicidal rate of 5% or more and less than 20%) | 4 (Herbicidal rate of 70% or more and less than 90%) | N: redroot pigweed, herbicidal effect rating [21]: 5 (Herbicidal rate of 90% or more (almost completely withered)); G: green foxtail, herbicidal effect rating [22]: 0 (Herbicidal rate of 5% or less (almost no effect)); herbicidal effect on N: redroot pigweed (criteria 0-5) [23]: 3 (Herbicidal rate of 40% or more and less than 70%); herbicidal effect on O: lambsquarters (criteria 0-5) [24]: 2 (Herbicidal rate of 20% or more and less than 40%); herbicidal effect on F: southern crabgrass (criteria 0-5) [25]: 3 (Herbicidal rate of 40% or more and less than 70%); Herbicidal effect on A: late watergrass (grade 0-5) [26]: 4 (Herbicidal rate of 70% or more and less than 90%); J: blackgrass, herbicidal effect rating [27]: 0 (Herbicidal rate of 5% or less (almost no effect)); O: lambsquarters, herbicidal effect rating [28]: 3 (Herbicidal rate of 40% or more and less than 70%); herbicidal effect on I: wild oat (criteria 0-5) [29]: 0 (Herbicidal rate of 5% or less (almost no effect)); R: persian speedwell, herbicidal effect rating [30]: 0 (Herbicidal rate of 5% or less (almost no effect))
COc1ccccc1-c1sc2ccc(C#N)cc2c1-c1c(O)c(C)nn(C)c1=O [2-190] | 0 (Herbicidal rate of 5% or less (almost no effect)) | 0 (Herbicidal rate of 5% or less (almost no effect)) | 0 (Herbicidal rate of 5% or less (almost no effect)) | 5 (Herbicidal rate of 90% or more (almost completely withered)) | 0 (Herbicidal rate of 5% or less (almost no effect)) | 0 (Herbicidal rate of 5% or less (almost no effect)) | 2 (Herbicidal rate of 20% or more and less than 40%) | 0 (Herbicidal rate of 5% or less (almost no effect)) | 2 (Herbicidal rate of 20% or more and less than 40%) | 3 (Herbicidal rate of 40% or more and less than 70%) | 0 (Herbicidal rate of 5% or less (almost no effect)) | 0 (Herbicidal rate of 5% or less (almost no effect)) | 4 (Herbicidal rate of 70% or more and less than 90%) | 0 (Herbicidal rate of 5% or less (almost no effect)) | 0 (Herbicidal rate of 5% or less (almost no effect)) | 0 (Herbicidal rate of 5% or less (almost no effect)) | 0 (Herbicidal rate of 5% or less (almost no effect)) | 0 (Herbicidal rate of 5% or less (almost no effect)) | 5 (Herbicidal rate of 90% or more (almost completely withered)) | 0 (Herbicidal rate of 5% or less (almost no effect)) | N: redroot pigweed, herbicidal effect rating [21]: 3 (Herbicidal rate of 40% or more and less than 70%); G: green foxtail, herbicidal effect rating [22]: 0 (Herbicidal rate of 5% or less (almost no effect)); herbicidal effect on N: redroot pigweed (criteria 0-5) [23]: 3 (Herbicidal rate of 40% or more and less than 70%); herbicidal effect on O: lambsquarters (criteria 0-5) [24]: 2 (Herbicidal rate of 20% or more and less than 40%); herbicidal effect on F: southern crabgrass (criteria 0-5) [25]: 0 (Herbicidal rate of 5% or less (almost no effect)); Herbicidal effect on A: late watergrass (grade 0-5) [26]: 3 (Herbicidal rate of 40% or more and less than 70%); J: blackgrass, herbicidal effect rating [27]: 0 (Herbicidal rate of 5% or less (almost no effect)); O: lambsquarters, herbicidal effect rating [28]: 5 (Herbicidal rate of 90% or more (almost completely withered)); herbicidal effect on I: wild oat (criteria 0-5) [29]: 0 (Herbicidal rate of 5% or less (almost no effect)); R: persian speedwell, herbicidal effect rating [30]: 0 (Herbicidal rate of 5% or less (almost no effect))
